Source: patent US12522602B2, “Derivatives having 2,3-dihydro-1H-indene or 2,3-dihydrobenzofuran moiety or pharmaceutically acceptable salt thereof and pharmaceutical compositions comprising the same” (YUHAN CORPORATION, priority 2019, dated 2026)

tested on: GM1 production in Jurkat cells; experiment: cells; format: cell-based; conditions: not given

Row | SMILES | IC50
1 | COc1cc2c(cc1-c1ccc(CC(C)C)cc1)CC(C)(C)C2NC(=O)O[C@@H]1CN2CCC1CC2 (stereo partly drawn) [Example 325, (S)-quinuclidin-3-yl (5-(4-isobutylphenyl)-6-methoxy-2,2-dimethyl-2,3-dihydro-1H-inden-1-yl)carbamate] | 2.1 nM

same assay, conditions: Homo sapiens, Jurkat, 72 h

Row | SMILES | IC50
2 | CC1(C)Cc2cc(-c3ccc(C(F)(F)F)cc3F)ccc2C1NC(=O)O[C@@H]1CN2CCC1CC2 (stereo partly drawn) [Example 229, (S)-quinuclidin-3-yl (5-(2-fluoro-4-(trifluoromethyl)phenyl)-2,2-dimethyl-2,3-dihydro-1H-inden-1-yl)carbamate] | 56.2 nM
3 | CCOc1c(C)cc(-c2ccc3c(c2)CC(CC)(CC)C3NC(=O)O[C@@H]2CN3CCC2CC3)cc1C (stereo partly drawn) [Example 303, (S)-quinuclidin-3-yl (5-(4-ethoxy-3,5-dimethylphenyl)-2,2-diethyl-2,3-dihydro-1H-inden-1-yl)carbamate] | 27.2 nM
4 | CC1(C)Cc2cc(-c3ccc(OC(F)(F)F)c(F)c3)ccc2C1NC(=O)O[C@@H]1CN2CCC1CC2 (stereo partly drawn) [Example 249, (S)-quinuclidin-3-yl (5-(3-fluoro-4-(trifluoromethoxy)phenyl)-2,2-dimethyl-2,3-dihydro-1H-inden-1-yl)carbamate] | 37 nM
5 | CC1(C)Cc2cc(-c3ccc(Cl)c(F)c3)ccc2C1NC(=O)O[C@@H]1CN2CCC1CC2 (stereo partly drawn) [Example 242, (S)-quinuclidin-3-yl (5-(4-chloro-3-fluorophenyl)-2,2-dimethyl-2,3-dihydro-1H-inden-1-yl)carbamate] | 64.4 nM
6 | O=C(NC1CCc2cc(-c3ccccc3Cl)ccc21)O[C@@H]1CN2CCC1CC2 (stereo partly drawn) [Example 10, (S)-quinuclidin-3-yl (5-(2-chlorophenyl)-2,3-dihydro-1H-inden-1-yl)carbamate] | 65.5 nM
7 | CCOc1cc(-c2ccc3c(c2)CC(C)(C)C3NC(=O)O[C@@H]2CN3CCC2CC3)cc(C(F)(F)F)c1 (stereo partly drawn) [Example 245, (S)-quinuclidin-3-yl (5-(3-ethoxy-5-(trifluoromethyl)phenyl)-2,2-dimethyl-2,3-dihydro-1H-inden-1-yl)carbamate] | 23 nM
8 | CCOc1ccc(-c2cc3c(cc2OC)C(NC(=O)O[C@@H]2CN4CCC2CC4)C(C)(C)C3)cc1 (stereo partly drawn) [Example 318, (S)-quinuclidin-3-yl (5-(4-ethoxyphenyl)-6-methoxy-2,2-dimethyl-2,3-dihydro-1H-inden-1-yl)carbamate] | 20 nM
9 | CCCOc1ccc(-c2cc3c(cc2OC)C(NC(=O)O[C@@H]2CN4CCC2CC4)C(C)(C)C3)cc1 (stereo partly drawn) [Example 319, (S)-quinuclidin-3-yl (6-methoxy-2,2-dimethyl-5-(4-propoxyphenyl)-2,3-dihydro-1H-inden-1-yl)carbamate] | 7.7 nM
10 | CC(C)Oc1ccc(-c2ccc3c(c2)CC(C)(C)C3NC(=O)O[C@@H]2CN3CCC2CC3)cc1 (stereo partly drawn) [Example 144, (S)-quinuclidin-3-yl (5-(4-isopropoxyphenyl)-2,2-dimethyl-2,3-dihydro-1H-inden-1-yl)carbamate] | 6.2 nM
11 | CC1(C)Cc2ccc(-c3ccc(OC(F)F)cc3)cc2C1NC(=O)O[C@@H]1CN2CCC1CC2 (stereo partly drawn) [Example 61, (S)-quinuclidin-3-yl (6-(4-(difluoromethoxy)phenyl)-2,2-dimethyl-2,3-dihydro-1H-inden-1-yl)carbamate] | 39.6 nM
12 | CCCOc1c(C)cc(-c2ccc3c(c2)CC(C)(C)C3NC(=O)O[C@@H]2CN3CCC2CC3)cc1C (stereo partly drawn) [Example 173, (S)-quinuclidin-3-yl (5-(3,5-dimethyl-4-propoxyphenyl)-2,2-dimethyl-2,3-dihydro-1H-inden-1-yl)carbamate] | 34.8 nM
13 | CCOc1ccc(-c2ccc3c(c2)CC(C)(C)C3NC(=O)O[C@@H]2CN3CCC2CC3)cn1 (stereo partly drawn) [Example 262, (S)-quinuclidin-3-yl (5-(6-ethoxypyridin-3-yl)-2,2-dimethyl-2,3-dihydro-1H-inden-1-yl)carbamate] | 34.4 nM
14 | CC1(C)Cc2ccc(-c3ccc(Cl)cc3)cc2C1NC(=O)O[C@@H]1CN2CCC1CC2 (stereo partly drawn) [Example 50, (S)-quinuclidin-3-yl (6-(4-chlorophenyl)-2,2-dimethyl-2,3-dihydro-1H-inden-1-yl)carbamate] | 52.3 nM
15 | CC1(C)Cc2cc(-c3cccc(C(F)(F)F)c3)ccc2C1NC(=O)O[C@@H]1CN2CCC1CC2 (stereo partly drawn) [Example 79, (S)-quinuclidin-3-yl (2,2-dimethyl-5-(3-(trifluoromethyl)phenyl)-2,3-dihydro-1H-inden-1-yl)carbamate] | 3.9 nM
16 | CC(C)Oc1cc(-c2ccc3c(c2)CC(C)(C)C3NC(=O)O[C@@H]2CN3CCC2CC3)ccn1 (stereo partly drawn) [Example 264, (S)-quinuclidin-3-yl (5-(2-isopropoxypyridin-4-yl)-2,2-dimethyl-2,3-dihydro-1H-inden-1-yl)carbamate] | 14.4 nM
17 | CCCCOc1c(C)cc(-c2cc3c(cc2OC)C(NC(=O)O[C@@H]2CN4CCC2CC4)C(C)(C)C3)cc1C (stereo partly drawn) [Example 331, (S)-quinuclidin-3-yl (5-(4-butoxy-3,5-dimethylphenyl)-6-methoxy-2,2-dimethyl-2,3-dihydro-1H-inden-1-yl)carbamate] | 22.6 nM
18 | CC1(C)Cc2cc(-c3ccc4c(c3)CCO4)ccc2C1NC(=O)O[C@@H]1CN2CCC1CC2 (stereo partly drawn) [Example 113, (S)-quinuclidin-3-yl (5-(2,3-dihydrobenzofuran-5-yl)-2,2-dimethyl-2,3-dihydro-1H-inden-1-yl)carbamate] | 54.8 nM

Row | SMILES | IC50
19 | COCCOc1ccc(-c2ccc3c(c2)C(NC(=O)O[C@@H]2CN4CCC2CC4)C(C)(C)C3)cc1 (stereo partly drawn) [Example 72, (S)-quinuclidin-3-yl (6-(4-(2-methoxyethoxy)phenyl)-2,2-dimethyl-2,3-dihydro-1H-inden-1-yl)carbamate] | 58.2 nM
20 | CCOc1ccc(-c2ccc3c(c2)CC(C)(C)C3NC(=O)O[C@@H]2CN3CCC2CC3)cc1C(F)(F)F (stereo partly drawn) [Example 170, (S)-quinuclidin-3-yl (5-(4-ethoxy-3-(trifluoromethyl)phenyl)-2,2-dimethyl-2,3-dihydro-1H-inden-1-yl)carbamate] | 13 nM
21 | COc1cc(-c2cc3c(cc2OC)C(NC(=O)O[C@@H]2CN4CCC2CC4)C(C)(C)C3)ccn1 (stereo partly drawn) [Example 332, (S)-quinuclidin-3-yl (6-methoxy-5-(2-methoxypyridin-4-yl)-2,2-dimethyl-2,3-dihydro-1H-inden-1-yl)carbamate] | 158 nM
22 | CCc1cccc(-c2ccc3c(c2)CC(C)(C)C3NC(=O)O[C@@H]2CN3CCC2CC3)c1 (stereo partly drawn) [Example 108, (S)-quinuclidin-3-yl (5-(3-ethylphenyl)-2,2-dimethyl-2,3-dihydro-1H-inden-1-yl)carbamate] | 7.6 nM
23 | CC1(C)Cc2cc(-c3ccc(N4CCOCC4)c(F)c3)ccc2C1NC(=O)O[C@@H]1CN2CCC1CC2 (stereo partly drawn) [Example 152, (S)-quinuclidin-3-yl (5-(3-fluoro-4-morpholinophenyl)-2,2-dimethyl-2,3-dihydro-1H-inden-1-yl)carbamate] | 32.5 nM
24 | Cc1ccc(-c2ccc3c(c2)CC(C)(C)C3NC(=O)O[C@@H]2CN3CCC2CC3)cc1C (stereo partly drawn) [Example 227, (S)-quinuclidin-3-yl (5-(3,4-dimethylphenyl)-2,2-dimethyl-2,3-dihydro-1H-inden-1-yl)carbamate] | 10.2 nM
25 | CCCCOc1c(C)cc(-c2cc3c(cc2F)C(NC(=O)O[C@@H]2CN4CCC2CC4)C(C)(C)C3)cc1C (stereo partly drawn) [Example 368, (S)-quinuclidin-3-yl (5-(4-butoxy-3,5-dimethylphenyl)-6-fluoro-2,2-dimethyl-2,3-dihydro-1H-inden-1-yl)carbamate] | 22.9 nM
26 | COc1cc(-c2ccc3c(c2)CC(C)(C)C3NC(=O)O[C@@H]2CN3CCC2CC3)ccc1F (stereo partly drawn) [Example 226, (S)-quinuclidin-3-yl (5-(4-fluoro-3-methoxyphenyl)-2,2-dimethyl-2,3-dihydro-1H-inden-1-yl)carbamate] | 57 nM
27 | COc1ccc(-c2cc3c(cc2OC)C(NC(=O)O[C@@H]2CN4CCC2CC4)C(C)(C)C3)c(F)c1 (stereo partly drawn) [Example 323, (S)-quinuclidin-3-yl (5-(2-fluoro-4-methoxyphenyl)-6-methoxy-2,2-dimethyl-2,3-dihydro-1H-inden-1-yl)carbamate] | 78.9 nM
28 | CC1(C)Cc2cc(-c3ccc(F)cc3F)ccc2C1NC(=O)O[C@@H]1CN2CCC1CC2 (stereo partly drawn) [Example 89, (S)-quinuclidin-3-yl (5-(2,4-difluorophenyl)-2,2-dimethyl-2,3-dihydro-1H-inden-1-yl)carbamate] | 50 nM
29 | Cc1ccc(-c2ccc3c(c2)C(NC(=O)O[C@@H]2CN4CCC2CC4)C(C)(C)C3)cc1 (stereo partly drawn) [Example 60, (S)-quinuclidin-3-yl (2,2-dimethyl-6-(p-tolyl)-2,3-dihydro-1H-inden-1-yl)carbamate] | 112 nM
30 | Cc1cccc(-c2ccc3c(c2)CC(C)(C)C3NC(=O)O[C@@H]2CN3CCC2CC3)c1F (stereo partly drawn) [Example 243, (S)-quinuclidin-3-yl (5-(2-fluoro-3-methylphenyl)-2,2-dimethyl-2,3-dihydro-1H-inden-1-yl)carbamate] | 21.4 nM
31 | COc1cc(OC)cc(-c2cc3c(cc2F)C(NC(=O)O[C@@H]2CN4CCC2CC4)C(C)(C)C3)c1 (stereo partly drawn) [Example 384, (S)-quinuclidin-3-yl (5-(3,5-dimethoxyphenyl)-6-fluoro-2,2-dimethyl-2,3-dihydro-1H-inden-1-yl)carbamate] | 83.2 nM
32 | CC1(C)Cc2ccc(-c3ccc(Cl)c(Cl)c3)cc2C1NC(=O)O[C@@H]1CN2CCC1CC2 (stereo partly drawn) [Example 70, (S)-quinuclidin-3-yl (6-(3,4-dichlorophenyl)-2,2-dimethyl-2,3-dihydro-1H-inden-1-yl)carbamate] | 70.9 nM
33 | CC1(C)Cc2ccc(-c3cc(Cl)ccc3Cl)cc2C1NC(=O)O[C@@H]1CN2CCC1CC2 (stereo partly drawn) [Example 71, (S)-quinuclidin-3-yl (6-(2,5-dichlorophenyl)-2,2-dimethyl-2,3-dihydro-1H-inden-1-yl)carbamate] | 64.3 nM
34 | CC1(C)Cc2cc(-c3ccc(N4CCOCC4)c(Cl)c3)ccc2C1NC(=O)O[C@@H]1CN2CCC1CC2 (stereo partly drawn) [Example 153, (S)-quinuclidin-3-yl (5-(3-chloro-4-morpholinophenyl)-2,2-dimethyl-2,3-dihydro-1H-inden-1-yl)carbamate] | 41.4 nM
35 | CCCCOc1ccc(-c2ccc3c(c2)CC(C)(C)C3NC(=O)O[C@@H]2CN3CCC2CC3)cc1Cl (stereo partly drawn) [Example 202, (S)-quinuclidin-3-yl (5-(4-butoxy-3-chlorophenyl)-2,2-dimethyl-2,3-dihydro-1H-inden-1-yl)carbamate] | 26.3 nM
